Measured values from US20220033406A1, “C[…] AS ANTI-VIRALS” (priority 2018, published 2022).
Like-named read-outs stand apart in the source and are kept apart here.

Assays:
[1] = system: HBV; test: Inhibition of HBV in HepG2.117 cells (anti-HBV activity, qPCR); assay type: cell-based; conditions: HBV viral DNA copy numbers in supernatant by qPCR
[2] = system: VSV-G pseudotyped HIV NL4-3; test: microbe, parasite or virus in culture; assay type: cell-based
[3] = Hepatitis B virus, HepG2.117, 96 h, Table 2 nucleosides
[4] = Human immunodeficiency virus 1, NL43, 72 h, read-out: HIV EC50 (uM)
[5] = Hepatitis B virus, HepG2.117, 96 h, Table 4 phosphoramidate prodrugs

For `C=C1[C@@H](n2cnc3c(N)ncnc32)C[C@H](O)[C@]1(CO)CF` [Example 13, (1S,2S,4S)-4-(6-Amino-9H-purin-9-yl)-2-(fluoromethyl)-2-(hydroxymethyl)-3-methylenecyclopentan-1-ol], the EC50 [1, 3] was greater than 5530 nM and the EC50 [2, 4] was 5.02 µM.

For `C=C1[C@@H](n2cc(C)c(=O)[nH]c2=O)C[C@H](O)[C@@]1(C#N)COP(=O)(N[C@@H](C)C(=O)OC(C)C)Oc1ccccc1` (stereo partly drawn) [Example 41, Isopropyl ((((1S,3S,5S)-1-cyano-5-hydroxy-3-(5-methyl-2.4-dioxo-3.4-dihydropyrimidin-1(2H)-yl)-2-methylenecyclopentyl)methoxy)(phenoxy)phosphoryl)-L-alaninate], the EC50 [1, 5] was greater than 10000 nM and the EC50 [2, 4] was 10.2 µM.

In the case of `C=C1[C@@H](n2cnc3c(=O)[nH]c(N)nc32)C[C@H](O)[C@@]1(C#N)COP(=O)(N[C@@H](C)C(=O)OC(C)C)Oc1ccccc1` (single isomer, unassigned) [Example 44, Isopropyl ((S*)-(((1S,3S,5S)-3-(2-amino-6-oxo-1,6-dihydro-9H-purin-9-yl)-1-cyano-5-hydroxy-2-methylenecyclopentyl)methoxy)(phenoxy)phosphoryl)-L-alaninate], the EC50 [1, 5] is reported as 459 nM and the EC50 [2, 4] is reported as 2.29 µM.

Work on `C=C1[C@@H](n2cnc3c(=O)[nH]c(N)nc32)C[C@H](O)[C@@]1(C#N)COP(=O)(N[C@@H](C)C(=O)OC(C)C)Oc1ccccc1` (single isomer, unassigned) [Example 43, Isopropyl ((R*)-(((1S,3S,5S)-3-(2-amino-6-oxo-1,6-dihydro-9H-purin-9-yl)-1-cyano-5-hydroxy-2-methylenecyclopentyl)methoxy)(phenoxy)phosphoryl)-L-alaninate] yielded an EC50 ([1]; 96 h, Table 4 phosphoramidate prodrugs) of 591 nM and an EC50 ([2]; read-out: HIV EC50) of 4.25 µM.

`C=C[C@]1(CO)C(=C)[C@@H](n2cnc3c(N)ncnc32)C[C@@H]1O` [Example 20, (1S,2R,4S)-4-(6-Amino-9H-purin-9-yl)-2-(hydroxymethyl)-3-methylene-2-vinylcyclopentan-1-ol] showed an EC50 [1, 3] greater than 10000 nM and an EC50 [2, 4] of 0.547 µM.

`C=C1[C@@H](n2cc(C)c(=O)[nH]c2=O)C[C@H](O)[C@@]1(F)CO` [Example 3, 1-((1S,3S,4S)-3-Fluoro-4-hydroxy-3-(hydroxymethyl)-2-methylenecyclopentyl)-5-methylpyrimidine-2,4(1H,3H)-dione] was tested, and the EC50 [1, 3] was greater than 10000 nM and the EC50 [2, 4] was greater than 33.3 µM.

In the case of `C=C1[C@@H](n2ccc(N)nc2=O)C[C@H](O)[C@@]1(C#N)COP(=O)(N[C@@H](C)C(=O)OC(C)C)Oc1ccccc1` (stereo partly drawn) [Example 42, Isopropyl ((((1S,3S,5S)-3-(4-amino-2-oxopyrimidin-1(2H)-yl)-1-cyano-5-hydroxy-2-methylenecyclopentyl)methoxy)(phenoxy)phosphoryl)-L-alaninate], the EC50 [1, 5] is reported as greater than 10000 nM and the EC50 [2, 4] is reported as 10.4 µM.

Molecule `C=C1[C@@H](n2cnc3c(N)ncnc32)C[C@H](O)[C@@]1(F)COP(=O)(N[C@@H](C)C(=O)OCC(C)(C)C)Oc1ccccc1` (stereo partly drawn) [Example 39, Neopentyl ((((1S,3S,5S)-3-(6-amino-9H-purin-9-yl)-1-fluoro-5-hydroxy-2-methylenecyclopentyl)methoxy)(phenoxy)phosphoryl)-L-alaninate] has an EC50 [1, 5] of 0.3 nM and an EC50 [2, 4] of 0.0139 µM.

For `C=C1[C@H](CO)[C@@H](O)C[C@@H]1n1ccc2c(N)ncnc21` [Example 9, (1S,2R,4S)-4-(4-Amino-7H-pyrrolo[2,3-d]pyrimidin-7-yl)-2-(hydroxymethyl)-3-methylenecyclopentan-1-ol], the EC50 [1, 3] was 7410 nM and the EC50 [2, 4] was greater than 33.3 µM.

With `C=C1[C@H](CO)[C@@H](O)C[C@@H]1n1ccc2c(=O)[nH]c(N)nc21` [Example 2, 2-Amino-7-((1S,3R,4S)-4-hydroxy-3-(hydroxymethyl)-2-methylenecyclopentyl)-3,7-dihydro-4H-pyrrolo[2,3-d]pyrimidin-4-one] the EC50 [1, 3] was greater than 10000 nM and the EC50 [2, 4] was greater than 33.3 µM.

For `C=C1[C@H](n2cnc3c(N)ncnc32)C[C@H](O)[C@]1(F)CO` [Example 7, (1S,2R,4R)-4-(6-Amino-9H-purin-9-yl)-2-fluoro-2-(hydroxymethyl)-3-methylenecyclopentan-1-ol], the EC50 [1, 3] was greater than 10000 nM and the EC50 [2, 4] was greater than 33.3 µM.

With `C#C[C@]1(COP(=O)(N[C@@H](C)C(=O)OC(C)C)Oc2ccccc2)C(=C)[C@@H](n2cnc3c(N)ncnc32)C[C@@H]1O` (stereo partly drawn) [Example 38, Isopropyl ((((1R,3S,5S)-3-(6-amino-9H-purin-9-yl)-1-ethynyl-5-hydroxy-2-methylenecyclopentyl)methoxy)(phenoxy)phosphoryl)-L-alaninate] the EC50 [1, 5] was 2370 nM and the EC50 [2, 4] was 0.0506 µM.

In the case of `C=C1[C@@H](n2cc(C)c(=O)[nH]c2=O)C[C@H](O)[C@@]1(C#N)CO` [Example 15, (1S,3S,5S)-5-Hydroxy-1-(hydroxymethyl)-3-(5-methyl-2,4-dioxo-3,4-dihydropyrimidin-1(2H)-yl)-2-methylenecyclopentane-1-carbonitrile], the EC50 [1, 3] is reported as greater than 10000 nM and the EC50 [2, 4] is reported as greater than 33.3 µM.

In the case of `C=C1[C@@H](n2cnc3c(N)ncnc32)C[C@H](O)[C@]1(CO)CCl` [Example 14, (1S,2S,4S)-4-(6-Amino-9H-purin-9-yl)-2-(chloromethyl)-2-(hydroxymethyl)-3-methylenecyclopentan-1-ol], the EC50 [1, 3] is reported as 3450 nM and the EC50 [2, 4] is reported as 1.08 µM.

With `C=C1[C@@H](n2ccc(N)nc2=O)C[C@H](O)[C@@]1(C#N)CO` [Example 16, (1S,3S,5S)-3-(4-Amino-2-oxopyrimidin-1(2H)-yl)-5-hydroxy-1-(hydroxymethyl)-2-methylenecyclopentane-1-carbonitrile] the EC50 [1, 3] was greater than 10000 nM and the EC50 [2, 4] was 5.83 µM.

Molecule `C=C1[C@@H](n2cnc3c(=O)[nH]c(N)nc32)C[C@H](O)[C@@]1(C#N)CO` [Example 18, (1S,3S,5S)-3-(2-Amino-6-oxo-1,6-dihydro-9H-purin-9-yl)-5-hydroxy-1-(hydroxymethyl)-2-methylenecyclopentane-1-carbonitrile] has an EC50 [1, 3] of 46.6 nM and an EC50 [2, 4] of 0.12 µM.

Work on `C=C1[C@@H](n2cnc3c(N)ncnc32)C[C@H](O)[C@@]1(F)CO` [Example 6, (1S,2S,4S)-4-(6-Amino-9H-purin-9-yl)-2-fluoro-2-(hydroxymethyl)-3-methylenecyclopentan-1-ol] yielded an EC50 [1, 3] of 61.7 nM and an EC50 [2, 4] of 2.68 µM.

`C=C1[C@@H](n2cnc3c(N)ncnc32)C[C@H](O)[C@@]1(CF)COP(=O)(N[C@@H](C)C(=O)OC(C)C)Oc1ccccc1` (stereo partly drawn) [Example 40, Isopropyl ((((1S,3S,5S)-3-(6-amino-9H-purin-9-yl)-1-(fluoromethyl)-5-hydroxy-2-methylenecyclopentyl)methoxy)(phenoxy)phosphoryl)-L-alaninate] gave an EC50 [1, 5] of 13.7 nM and an EC50 [2, 4] of 0.144 µM.

`C=C1[C@@H](n2ccc(N)nc2=O)C[C@H](O)[C@]1(CO)CF` [Example 11, 4-Amino-1-((1S,3S,4S)-3-(fluoromethyl)-4-hydroxy-3-(hydroxymethyl)-2-methylenecyclopentyl)pyrimidin-2(1H)-one] was tested, and the EC50 [1, 3] was 9180 nM and the EC50 [2, 4] was 0.911 µM.

Molecule `C#C[C@]1(CO)C(=C)[C@@H](n2cnc3c(N)ncnc32)C[C@@H]1O` [Example 19, (1S,2R,4S)-4-(6-Amino-9H-purin-9-yl)-2-ethynyl-2-(hydroxymethyl)-3-methylenecyclopentan-1-ol] has an EC50 [1, 3] greater than 10000 nM and an EC50 [2, 4] of 0.0665 µM.

Molecule `C=C1[C@@H](n2cc(C)c(=O)[nH]c2=O)C[C@H](O)[C@]1(CO)CF` [Example 12, 1-((1S,3S,4S)-3-(fluoromethyl)-4-hydroxy-3-(hydroxymethyl)-2-methylenecyclopentyl)-5-methylpyrimidine-2,4(1H,3H)-dione] has an EC50 [1, 3] greater than 10000 nM and an EC50 [2, 4] greater than 33.3 µM.

Work on `C=C1[C@@H](n2ccc3c(N)ncnc32)C[C@H](O)[C@@]1(F)CO` [Example 1, (1S,2S,4S)-4-(4-Amino-7H-pyrrolo[2,3-d]pyrimidin-7-yl)-2-fluoro-2-(hydroxymethyl)-3-methylenecyclopentan-1-ol] yielded an EC50 [1, 3] of 10.9 nM.

In the case of `C=C1[C@H](n2cnc3c(=O)[nH]c(N)nc32)C[C@H](O)[C@]1(F)CO` [Example 5, 2-Amino-9-((1R,3R,4S)-3-fluoro-4-hydroxy-3-(hydroxymethyl)-2-methylenecyclopentyl)-1,9-dihydro-6H-purin-6-one], the EC50 [1, 3] is reported as 2470 nM and the EC50 [2, 4] is reported as greater than 33.3 µM.

In the case of `C=C1[C@@H](n2cnc3c(N)ncnc32)C[C@H](O)[C@@]1(C#N)CO` [Example 17, (1S,3S,5S)-3-(6-Amino-9H-purin-9-yl)-5-hydroxy-1-(hydroxymethyl)-2-methylenecyclopentane-1-carbonitrile], the EC50 [1, 3] is reported as greater than 10000 nM and the EC50 [2, 4] is reported as 2.21 µM.

In the case of `C=C1[C@@H](n2cnc3c(=O)[nH]c(N)nc32)C[C@H](O)[C@@]1(F)CO` [Example 4, 2-Amino-9-((1S,3S,4S)-3-fluoro-4-hydroxy-3-(hydroxymethyl)-2-methylenecyclopentyl)-1,9-dihydro-6H-purin-6-one], the EC50 [1, 3] is reported as less than 0.9 nM and the EC50 [2, 4] is reported as 0.0356 µM.

With `C=C1[C@@H](n2cnc3c(=O)[nH]c(N)nc32)C[C@H](O)[C@]1(CO)CF` [Example 10, 2-Amino-9-((1S,3S,4S)-3-(fluoromethyl)-4-hydroxy-3-(hydroxymethyl)-2-methylenecyclopentyl)-1,9-dihydro-6H-purin-6-one] the EC50 [1, 3] was 166 nM and the EC50 [2, 4] was 0.662 µM.
